Bridge positions count the residues as written; N and C are the ends. Square brackets hold non-standard residues; d marks the D form. Peptide text beside a SMILES is read from it. * marks the point of attachment. ξ: configuration not given here. Bip(4'-COOH) = N[C@@H](Cc1ccc(-c2ccc(C(=O)O)cc2)cc1)C(=O)O; Tyr(3-NO2) = N[C@@H](Cc1ccc(O)c([N+](=O)[O-])c1)C(=O)O; Phe(4-COOH) = N[C@@H](Cc1ccc(C(=O)O)cc1)C(=O)O; Bip = N[C@@H](Cc1ccc(-c2ccccc2)cc1)C(=O)O; Phe(3-Me) = Cc1cccc(C[C@H](N)C(=O)O)c1; Phe(2-F) = N[C@@H](Cc1ccccc1F)C(=O)O; Val(3-OH) = CC(C)(O)[C@H](N)C(=O)O; 3Pal = N[C@@H](Cc1cccnc1)C(=O)O; Cha = N[C@@H](CC1CCCCC1)C(=O)O; Cit = NC(=O)NCCC[C@H](N)C(=O)O; Ile(3ξ) = CCC(C)[C@H](N)C(=O)O; dCha = N[C@H](CC1CCCCC1)C(=O)O; Thr(3ξ) = CC(O)[C@H](N)C(=O)O; Carboxymethyl = O=C(O)C*; NMeA = CN[C@@H](C)C(=O)O; Nle = CCCC[C@H](N)C(=O)O; Dab = NCC[C@H](N)C(=O)O; Dap = NC[C@H](N)C(=O)O
Target: T1, PE-labeled human PD-L1-Ig binding to Jurkat cell line over-expressing human PD-1 (Jurkat-PD-1) (Homo sapiens, UniProt Q15116)
T1 construct: expressed in transfected cells; host or cells: Jurkat
T1 sequence (Q15116 25-288): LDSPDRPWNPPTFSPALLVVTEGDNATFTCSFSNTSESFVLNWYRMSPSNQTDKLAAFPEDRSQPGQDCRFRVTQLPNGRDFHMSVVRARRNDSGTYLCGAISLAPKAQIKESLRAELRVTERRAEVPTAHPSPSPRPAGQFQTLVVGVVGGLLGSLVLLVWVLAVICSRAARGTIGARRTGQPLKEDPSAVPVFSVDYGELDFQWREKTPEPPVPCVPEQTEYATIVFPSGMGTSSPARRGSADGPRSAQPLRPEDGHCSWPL
Experiment: Jurkat-PD-1 Cell Binding High-Content Screening Assay (CBA): Method 1
Settings: Jurkat HPDL1 PD1 IC50 (Method 1), cells printed in nM, Jurkat-hPD-1 cells, PE-labeled PD-L1-Ig 20 nM final; unit nM

Row | Structure (SMILES) | IC50 [nM]
1 | CC(C)C[C@@H]1NC(=O)[C@H](CCN)NC(=O)[C@@H](CC(C)C)NC(=O)[C@H](C)N(C)C(=O)[C@H](C(C)C)NC(=O)[C@H](Cc2ccc(-c3ccccc3)cc2)NC(=O)[C@H](C(C)C)NC(=O)[C@H](Cc2c[nH]c3ccccc23)NC(=O)[C@H](CC(=O)O)NC(=O)[C@H](Cc2ccc(C(=O)O)cc2)NC(=O)[C@H](CN)NC(=O)CSC[C@@H](C(=O)N[C@@H](C)C(N)=O)NC(=O)[C@H]([C@@H](C)O)NC(=O)[C@H](C(C)C)NC1=O [Compound 1416] ({CH2CO}-[Dap][Phe(4-COOH)]DWV[Bip]V[NMeA][dL][Dab]LVTCA-NH2; thioether N-14) | 4.7

Same assay, conditions: Jurkat-hPD-1 cells, PE-labeled PD-L1-Ig 20 nM final; read-out: Jurkat HPDL1 PD1 IC50 (uM) (Method 1)

Row | Structure (SMILES) | IC50 [nM]
2 | CC(C)C[C@@H]1NC(=O)[C@H](Cc2c[nH]c3ccccc23)NC(=O)[C@H](CC(=O)O)NC(=O)[C@H](Cc2ccccc2F)NC(=O)[C@H](Cc2ccccc2)NC(=O)CSC[C@@H](C(=O)N[C@@H](C)C(N)=O)NC(=O)[C@H](CO)NC(=O)[C@H](C(C)C)NC(=O)[C@H](CC(C)C)NC(=O)[C@H](CC(N)=O)NC(=O)[C@@H](C)NC(=O)[C@H](C)N(C)C(=O)[C@H](C(C)C)NC(=O)[C@H](Cc2ccc(-c3ccccc3)cc2)NC1=O [Compound 1735] ({CH2CO}-F[Phe(2-F)]DWL[Bip]V[NMeA][dA]NLVSCA-NH2; thioether N-14) | 20
3 | COc1ccc(C[C@H]2NC(=O)[C@H](C)N(C)C(=O)[C@H](CCCNC(=N)N)NC(=O)[C@H](Cc3ccc(-c4ccccc4)cc3)NC(=O)[C@H](C(C)C)NC(=O)[C@H](Cc3c[nH]c4ccccc34)NC(=O)[C@H](CC(=O)O)NC(=O)[C@H](Cc3ccc(O)cc3)NC(=O)[C@H](Cc3ccccc3)NC(=O)CSC[C@@H](C(=O)N[C@@H](C)C(N)=O)NC(=O)[C@H]([C@@H](C)O)NC(=O)[C@H](C(C)C)NC(=O)[C@H](CC(C)C)NC(=O)[C@H](CCCNC(=N)N)NC2=O)cc1 [Compound 1108] ({CH2CO}-FYDWV[Bip]R[NMeA][dY](Me)RLVTCA-NH2; thioether N-14) | 530
4 | CCC(C)[C@@H]1NC(=O)[C@H](Cc2ccc(-c3ccccc3)cc2)NC(=O)[C@H](C(C)C)NC(=O)[C@H](Cc2c[nH]c3ccccc23)NC(=O)[C@H](CC(=O)O)NC(=O)[C@H](Cc2ccc(O)cc2)NC(=O)[C@H](CC(N)=O)NC(=O)CSC[C@@H](C(=O)N[C@@H](CCCCN)C(N)=O)NC(=O)[C@H](C(C)O)NC(=O)[C@H](C(C)C)NC(=O)[C@H](CC2CCCCC2)NC(=O)[C@H](CCN)NC(=O)[C@@H](CC(C)C)NC(=O)[C@H](C)N(C)C1=O (stereo partly drawn) [Compound 2079] ({CH2CO}-NYDWV[Bip][Ile(3ξ)][NMeA][dL][Dab][Cha]V[Thr(3ξ)]CK-NH2; thioether N-14) | 20
5 | CC(C)C[C@@H]1NC(=O)[C@H](CCN)NC(=O)[C@@H](CC(C)C)NC(=O)[C@H](C)N(C)C(=O)[C@H](CC(N)=O)NC(=O)[C@H](Cc2ccc(-c3ccccc3)cc2)NC(=O)[C@H](C(C)C)NC(=O)[C@H](Cc2c[nH]c3ccccc23)NC(=O)[C@H](CC(=O)O)NC(=O)[C@H](Cc2ccc(O)cc2)NC(=O)[C@H](CC(N)=O)NC(=O)CSC[C@@H](C(=O)N[C@@H](C)C(N)=O)NC(=O)[C@H]([C@@H](C)O)NC(=O)[C@H](C(C)C)NC1=O [Compound 1259] ({CH2CO}-NYDWV[Bip]N[NMeA][dL][Dab]LVTCA-NH2; thioether N-14) | 110
6 | CC(C)C[C@@H]1NC(=O)[C@H](Cc2c[nH]c3ccccc23)NC(=O)[C@H](CC(=O)O)NC(=O)[C@H](Cc2ccc(OCC(=O)O)cc2)NC(=O)[C@H](Cc2ccc(-c3ccc(C(=O)O)cc3)cc2)NC(=O)CSC[C@@H](C(=O)N[C@@H](CC(N)=O)C(N)=O)NC(=O)[C@H](CO)NC(=O)[C@H](C(C)C)NC(=O)[C@H](CC(C)C)NC(=O)[C@H](CCN)NC(=O)[C@@H](CC(C)C)NC(=O)[C@H](C)N(C)C(=O)[C@H](Cc2cnc[nH]2)NC(=O)[C@H](Cc2ccc(-c3ccccc3)cc2)NC1=O [Compound 2097] ({CH2CO}-[Bip(4'-COOH)]Y(Carboxymethyl)DWL[Bip]H[NMeA][dL][Dab]LVSCN-NH2; thioether N-14) | 30
7 | Cc1cccc(C[C@@H]2NC(=O)[C@H](CC(=O)O)NC(=O)[C@H](Cc3ccc(OCC(=O)O)cc3)NC(=O)[C@H](C(C)O)NC(=O)CSC[C@@H](C(=O)N[C@@H](CCN)C(N)=O)NC(=O)[C@H](CO)NC(=O)[C@H](C(C)(C)O)NC(=O)[C@H](CC3CCCCC3)NC(=O)[C@H](CCN)NC(=O)[C@@H](CC(C)C)NC(=O)[C@H](C)N(C)C(=O)[C@H](Cc3ccc(C(=O)O)cc3)NC(=O)[C@H](Cc3ccc(-c4ccccc4)cc3)NC(=O)[C@H](Cc3ccc(C(=O)O)cc3)NC2=O)c1 (stereo partly drawn) [Compound 2152] ({CH2CO}-[Thr(3ξ)]Y(Carboxymethyl)D[Phe(3-Me)][Phe(4-COOH)][Bip][Phe(4-COOH)][NMeA][dL][Dab][Cha][Val(3-OH)]SC[Dab]-NH2; thioether N-14) | 10
8 | Cc1cccc(C[C@@H]2NC(=O)[C@H](CC(=O)O)NC(=O)[C@H](Cc3ccc(C(=O)O)cc3)NC(=O)[C@H](CN)NC(=O)CSC[C@@H](C(=O)N[C@@H](C)C(N)=O)NC(=O)[C@H]([C@@H](C)O)NC(=O)[C@H](C(C)C)NC(=O)[C@H](CC(C)C)NC(=O)[C@H](CCN)NC(=O)[C@@H](CC(C)C)NC(=O)[C@H](C)N(C)C(=O)[C@H](CCCNC(N)=O)NC(=O)[C@H](Cc3ccc(-c4ccccc4)cc3)NC(=O)[C@H](C(C)C)NC2=O)c1 [Compound 1429] ({CH2CO}-[Dap][Phe(4-COOH)]D[Phe(3-Me)]V[Bip][Cit][NMeA][dL][Dab]LVTCA-NH2; thioether N-14) | 10
9 | CC(C)C[C@@H]1NC(=O)[C@H](CCCNC(=N)N)NC(=O)[C@@H](CC2CCCCC2)NC(=O)[C@H](C)N(C)C(=O)[C@H](CCCNC(=N)N)NC(=O)[C@H](Cc2ccc(-c3ccccc3)cc2)NC(=O)[C@H](C(C)C)NC(=O)[C@H](Cc2c[nH]c3ccccc23)NC(=O)[C@H](CC(=O)O)NC(=O)[C@H](Cc2ccc(O)cc2)NC(=O)[C@H](Cc2ccccc2)NC(=O)CSC[C@@H](C(=O)N[C@@H](C)C(N)=O)NC(=O)[C@H]([C@@H](C)O)NC(=O)[C@H](C(C)C)NC1=O [Compound 1076] ({CH2CO}-FYDWV[Bip]R[NMeA][dCha]RLVTCA-NH2; thioether N-14) | 50
10 | CC(C)C[C@@H]1NC(=O)[C@H](CCN)NC(=O)[C@@H](CC(C)C)NC(=O)[C@H](C)N(C)C(=O)[C@H](CCC(=O)O)NC(=O)[C@H](Cc2ccc(-c3ccccc3)cc2)NC(=O)[C@H](C(C)C)NC(=O)[C@H](Cc2c[nH]c3ccccc23)NC(=O)[C@H](CC(=O)O)NC(=O)[C@H](Cc2ccc(O)cc2)NC(=O)[C@H](CC(N)=O)NC(=O)CSC[C@@H](C(=O)N[C@@H](C)C(N)=O)NC(=O)[C@H](CO)NC(=O)[C@H](C(C)C)NC1=O [Compound 1248] ({CH2CO}-NYDWV[Bip]E[NMeA][dL][Dab]LVSCA-NH2; thioether N-14) | 70
11 | CCCC[C@@H]1NC(=O)[C@H](CCCNC(=N)N)NC(=O)[C@@H](CC(C)C)NC(=O)[C@H](C)N(C)C(=O)[C@H](CCCNC(N)=O)NC(=O)[C@H](Cc2ccc(-c3ccccc3)cc2)NC(=O)[C@H](C(C)C)NC(=O)[C@H](Cc2c[nH]c3ccccc23)NC(=O)[C@H](CC(=O)O)NC(=O)[C@H](Cc2ccc(O)cc2)NC(=O)[C@H](CC(N)=O)NC(=O)CSC[C@@H](C(=O)N[C@@H](C)C(N)=O)NC(=O)[C@H]([C@@H](C)O)NC(=O)[C@H](C(C)C)NC1=O [Compound 1285] ({CH2CO}-NYDWV[Bip][Cit][NMeA][dL]R[Nle]VTCA-NH2; thioether N-14) | 50
12 | CC(C)C[C@@H]1NC(=O)[C@H](CCN)NC(=O)[C@@H](CC(C)C)NC(=O)[C@H](C)N(C)C(=O)[C@H](CCCNC(=N)N)NC(=O)[C@H](Cc2ccc(-c3ccccc3)cc2)NC(=O)[C@H](C(C)C)NC(=O)[C@H](Cc2c[nH]c3ccccc23)NC(=O)[C@H](CC(=O)O)NC(=O)[C@H](Cc2ccc(O)c([N+](=O)[O-])c2)NC(=O)[C@H](Cc2ccccc2)NC(=O)CSC[C@@H](C(=O)N[C@@H](C)C(N)=O)NC(=O)[C@H]([C@@H](C)O)NC(=O)[C@H](C(C)C)NC1=O [Compound 1145] ({CH2CO}-F[Tyr(3-NO2)]DWV[Bip]R[NMeA][dL][Dab]LVTCA-NH2; thioether N-14) | 20
13 | CC(C)C[C@@H]1NC(=O)CSC[C@@H](C(=O)NCC(N)=O)NC(=O)[C@H](CO)NC(=O)[C@H](C(C)C)NC(=O)[C@H](CC(C)C)NC(=O)[C@H](CCCNC(=N)N)NC(=O)[C@@H](Cc2ccccc2)NC(=O)[C@H](C)N(C)C(=O)[C@H](CCCNC(=N)N)NC(=O)[C@H](Cc2ccc(-c3ccccc3)cc2)NC(=O)[C@H](C(C)C)NC(=O)[C@H](Cc2c[nH]c3ccccc23)NC(=O)[C@H](CC(=O)O)NC(=O)[C@H](Cc2ccc(O)cc2)NC1=O [Compound 1024] ({CH2CO}-LYDWV[Bip]R[NMeA][dF]RLVSCG-NH2; thioether N-14) | 150
14 | CC(C)C[C@@H]1NC(=O)[C@H](CCN)NC(=O)[C@@H](CC(C)C)NC(=O)[C@H](C)N(C)C(=O)[C@H](CCCNC(N)=O)NC(=O)[C@H](Cc2ccc(-c3ccccc3)cc2)NC(=O)[C@H](C(C)C)NC(=O)[C@H](Cc2c[nH]c3ccccc23)NC(=O)[C@H](CC(=O)O)NC(=O)[C@H](Cc2cccnc2)NC(=O)[C@H](Cc2cccnc2)NC(=O)CSC[C@@H](C(=O)N[C@@H](C)C(N)=O)NC(=O)[C@H]([C@@H](C)O)NC(=O)[C@H](C(C)C)NC1=O [Compound 1339] ({CH2CO}-[3Pal][3Pal]DWV[Bip][Cit][NMeA][dL][Dab]LVTCA-NH2; thioether N-14) | 50
15 | CCC(C)[C@@H]1NC(=O)[C@H](Cc2ccc(-c3ccccc3)cc2)NC(=O)[C@H](C(C)C)NC(=O)[C@H](Cc2c[nH]c3ccccc23)NC(=O)[C@H](CC(=O)O)NC(=O)[C@H](Cc2ccc(OCC(=O)O)cc2)NC(=O)[C@H](C(C)O)NC(=O)CSC[C@@H](C(=O)N[C@H](CC(N)=O)C(N)=O)NC(=O)[C@H](CO)NC(=O)[C@H](C(C)C)NC(=O)[C@H](CC2CCCCC2)NC(=O)[C@H](CCN)NC(=O)[C@@H](CC(C)C)NC(=O)[C@H](C)N(C)C1=O (stereo partly drawn) [Compound 2117] ({CH2CO}-[Thr(3ξ)]Y(Carboxymethyl)DWV[Bip][Ile(3ξ)][NMeA][dL][Dab][Cha]VSC[dN]-NH2; thioether N-14) | 20

Reference: patent US20240409585A1, “MACROCYCLIC IMMUNOMODULATORS” (priority 2021, published 2024)
